Laboratory results taken from patent US20140009887A1, “FLUORINATED OXIRANES AS HEAT TRANSFER FLUIDS” (3M INNOVATIVE PROPERTIES COMPANY, priority 2011, published 2014).

Tests used:
[1] = Pour point (thermophysical properties); assay type: physicochemical
Description: (§1) The useful liquid range (between the pour point and the normal boiling point) of the fluorinated oxiranes (Examples 1-3) are similar to perfluorocarbons (Comparative 1), perfluoroketones (Comparative 2), and perfluoroethers (Comparative 3). The specific heat capacity of the Comparatives is also very similar to the exemplary fluorinated oxiranes.

[2] = Normal boiling point (thermophysical properties); assay type: physicochemical
Description: as §1

Specific heat capacity = assay type: physicochemical
Description: as §1

Vapor pressure = assay type: physicochemical
Description: as §1

Kinematic viscosity = assay type: physicochemical; conditions: for Viscosity @ 25° C.: kinematic viscosity; for Low temperature kinematic viscosity (in words): compared with fluids close in boiling point, FIG. 1 and FIG. 2
Description: as §1
The viscosity impacts the heat transfer performance and liquid pumping power.

[3] = Hydrolytic stability: fluoride ion in water phase after aging with deionized water; assay type: physicochemical; conditions: for F concentration after 30 min at 25° C. / F concentration after 4 hours at 50° C.: 5 g material + 5 g deionized water; for F concentration after 30 min at 25° C.: agitated 30 min at room temperature (~25° C.); for F concentration after 4 hours at 50° C.: monel pressure vessel
Procedure: Example 1 and Comparatives 1 and 2 were tested for hydrolytic stability at room temperature (˜25° C.) and 50° C. Room temperature testing was conducted by placing 5 grams of test material along with 5 grams of deionized water in new polypropylene, centrifuge tubes which were then sealed and agitated for 30 minutes using a shaker set at low speed. Elevated temperature testing was carried out by placing 5 grams of test material along with 5 grams deionized water in a clean monel pressure vessel which was sealed and placed in a convection oven set at 50° C. for 4 hours. After aging, the fluoride concentrations were determined by mixing 0.5 ml of the water phase from each sample with 0.5 ml of TISAB II buffer solution and measuring fluoride ion concentration using a calibrated fluoride selective electrode connected to a pH/millivolt meter (both the electrode and buffer solutions are available from Thermo Scientific Orion, Beverly, Mass.). The hydrolytic stability of Example 1, Comparative Example 1 and Comparative Example 2 were determined and are reported as parts per million by weight (ppmw) of fluorine in Table III below.

[4] = reported in Climate Change 2007, IPCC Fourth Assessment Report; cited from earlier work
[5] = Dielectric breakdown strength according to ASTM D877; assay type: physicochemical; conditions: ASTM D877, model LD60 liquid dielectric test set
Procedure: In applications where the direct contact of energized, electronic components by the heat transfer fluid occurs, whether intended or otherwise, the need exists for fluids with dielectric breakdown strengths greater than around 8 megavolts/meter (MV/m), measured according to ASTM D877. Such high dielectric breakdown strengths help to avoid damage to the electronic components through short circuits.
The dielectric breakdown strengths of Example 1 and 3 were determined according to ASTM D877, using a model LD60 liquid dielectric test set available from Phenix Technologies, Accident, Md. The breakdown strengths for example 1 and 3 were 15.5 MV/m and 17.3 MV/m respectively.

[6] = Atmospheric lifetime from kinetic studies for reaction with hydroxyl radical; assay type: physicochemical; conditions: based on kinetic studies for reaction with hydroxyl radical
Description: The atmospheric lifetimes of C6F14 and CF3OCF(CF3)CF2OCF2OCF3 are reported as 3200 years and 800 years, respectively (see Climate Change 2007: The Physical Science Basis. Contribution of Working Group I to the Fourth Assessment Report of the Intergovernmental Panel on Climate Change, Solomon, S., D. Qin, M. Manning, Z. Chen, M. Marquis, K. B. Averyt, M. Tignor and H. L. Miller (eds.), Cambridge University Press, Cambridge, United Kingdom and New York, N.Y., USA, 996 pp, 2007.). […] Based on kinetic studies for reaction with hydroxyl radical, 2,3-difluoro-2-(1,2,2,2-tetrafluoro-l-trifluoromethyl-ethyl)-3-trifluoromethyl-oxirane has an estimated atmospheric lifetime of 20 years.

| Compound | Pour Point [1] [°C] | Normal Boiling Point [2] [°C] | Specific Heat Capacity (Specific heat capacity) [J/kg-K] | Vapor Pressure @ 25° C. (Vapor pressure) [kPa] | Viscosity @ 25° C. (Kinematic viscosity) | Low temperature kinematic viscosity (in words) (Kinematic viscosity) | F concentration after 30 min at 25° C. [3] [ppmw] | F concentration after 4 hours at 50° C. [3] [ppmw] | Atmospheric lifetime [4] [years] | Dielectric breakdown strength [5] [MV/m] | Estimated atmospheric lifetime [6] [years] | Hydrolytic stability (comparison in words) ([3]; room temperature and 50° C.) |
| --- | --- | --- | --- | --- | --- | --- | --- | --- | --- | --- | --- | --- |
| CCOC(F)(C(F)(F)C(F)(F)C(F)(F)F)C(F)(C(F)(F)F)C(F)(F)F (stereo not drawn) [Comparative 3, 2-trifluoromethyl-3-ethoxydodecafluorohexane] | −100 | 128 | 1128 | 2.1 | 7.7 ×10^−7 m^2/s |  |  |  |  |  |  |  |
| FC(F)(F)C(F)(F)C(F)(F)N(C(F)(F)C(F)(F)C(F)(F)F)C(F)(F)C(F)(F)C(F)(F)F [Comparative 4, Perfluorotripropylamine] | −50 | 130 | 1100 | 1.4 | 7.5 ×10^−7 m^2/s |  |  |  |  |  |  |  |
| FC1(F)C(F)(F)C(F)(F)C2(F)OC2(F)C1(F)F (stereo not drawn) [Example 2, 1,2,2,3,3,4,4,5,5,6-decafluoro-7-oxa-bicyclo [4.1.0]heptane] | −88 | 56.1 | 1083 | 30.3 | 6.6 ×10^−7 m^2/s | better low temperature viscosity |  |  |  |  |  |  |
| O=C(C(F)(F)C(F)(F)F)C(F)(C(F)(F)F)C(F)(F)F [Comparative 2, Dodecafluoro-2-methylpentan-3-one] | −108 | 49 | 1103 | 40.4 | 4.0 ×10^−7 m^2/s |  | 1.13 | 5.89 |  |  |  |  |
| FC(F)(F)C(F)(F)C(F)(F)C(F)(F)C(F)(F)C(F)(F)F [Comparative 1, Perfluorohexane] | −90 | 56 | 1100 | 30.0 | 3.8 ×10^−7 m^2/s |  | 0.09 | 0.23 | 3200 |  |  |  |
| HFP Trimer-Oxirane [Example 3] | −103 | 121.9 | 869 | 1.6 | 12.5 ×10^−7 m^2/s | acceptable viscosity for heat transfer applications as low as −40 °C |  |  |  | 17.3 |  |  |
| FC(F)(F)C1(F)OC1(F)C(F)(C(F)(F)F)C(F)(F)F (stereo not drawn) [Example 1, 2,3-difluoro-2-(1,2,2,2-tetrafluoro-1-trifluoromethyl-ethyl)-3-trifluoromethyl-oxirane] | −145 | 51.7 | 1145 | 36.0 | 3.7 ×10^−7 m^2/s | better low temperature viscosity | 0.14 | 0.13 |  | 15.5 | 20 | comparable to that of comparative 1 and better than comparative 2 |
| FC(F)(F)C(F)(F)C1(F)OC1(C(F)(F)F)C(F)(F)F (stereo not drawn) [2-fluoro-2-pentafluoroethyl-3,3-bis-trifluoromethyl-oxirane] |  |  |  |  |  |  |  |  |  |  | 77 |  |
| FC(F)(F)OC(F)(F)OC(F)(F)C(F)(OC(F)(F)F)C(F)(F)F (stereo not drawn) [CF3OCF(CF3)CF2OCF2OCF3] |  |  |  |  |  |  |  |  | 800 |  |  |  |
